In the supplement of paper PMC8882468:

Test system: HCI-002 (organoid from a triple-negative breast cancer xenograft)
Assay: CTG-3D luminescence at 96 h relative to day-0 seeding control (ratio to day 0); higher = more growth / less cytotoxicity; PDxO 3D drug screen, 96 h, CTG-3D normalised to day-0 seeding control.
Settings: 625 fM; days in culture: 91

| SMILES | CTG-3D luminescence at 96 h |
| --- | --- |
| COc1cc2c(Oc3ccc4[nH]c(C)cc4c3F)ncnc2cc1OCCCN1CCCC1 [cediranib] | 4.42 |
| CC(C)n1nc(-c2ccc3oc(N)nc3c2)c2c(N)ncnc21 [sapanisertib] | 4.41 |
| Cc1cc(Nc2ncnc3ccc(NC4=NC(C)(C)CO4)cc23)ccc1Oc1ccn2ncnc2c1 [tucatinib] | 3.48 |
| C[C@H](NC(=O)CCC(F)(F)F)C(=O)N[C@@H]1C(=O)N(CCO)c2ncccc2-c2ccccc21 [crenigacestat] | 3.82 |
| C[C@]12CC[C@@H]3c4ccc(O)cc4C[C@@H](CCCCCCCCC[S+]([O-])CCCC(F)(F)C(F)(F)F)[C@H]3[C@@H]1CC[C@@H]2O (stereo partly specified) [fulvestrant] | 3.54 |
| O=C(c1ccc(F)c(F)c1Nc1ccc(I)cc1F)N1CC(O)([C@@H]2CCCCN2)C1 [cobimetinib] | 3.97 |
| O=C(/C=C/c1cccnc1)NCCCCC1CCN(C(=O)c2ccccc2)CC1 [FK866] | 4.36 |
| CS(=O)(=O)c1ccc(C(=O)Nc2ccc(Cl)c(-c3ccccn3)c2)c(Cl)c1 [vismodegib] | 2.53 |
| C=CCn1c(=O)c2cnc(Nc3ccc(N4CCN(C)CC4)cc3)nc2n1-c1cccc(C(C)(C)O)n1 [adavosertib] | 4.31 |

Same assay, conditions: 625 fM; days in culture: 191

| SMILES | CTG-3D luminescence at 96 h |
| --- | --- |
| COc1cc2c(Oc3ccc4[nH]c(C)cc4c3F)ncnc2cc1OCCCN1CCCC1 [cediranib] | 2.52 |
| CC(C)n1nc(-c2ccc3oc(N)nc3c2)c2c(N)ncnc21 [sapanisertib] | 2.61 |
| Cc1cc(Nc2ncnc3ccc(NC4=NC(C)(C)CO4)cc23)ccc1Oc1ccn2ncnc2c1 [tucatinib] | 2.73 |
| C[C@H](NC(=O)CCC(F)(F)F)C(=O)N[C@@H]1C(=O)N(CCO)c2ncccc2-c2ccccc21 [crenigacestat] | 2.36 |
| C[C@]12CC[C@@H]3c4ccc(O)cc4C[C@@H](CCCCCCCCC[S+]([O-])CCCC(F)(F)C(F)(F)F)[C@H]3[C@@H]1CC[C@@H]2O (stereo partly specified) [fulvestrant] | 2.7 |
| O=C(c1ccc(F)c(F)c1Nc1ccc(I)cc1F)N1CC(O)([C@@H]2CCCCN2)C1 [cobimetinib] | 2.65 |
| O=C(/C=C/c1cccnc1)NCCCCC1CCN(C(=O)c2ccccc2)CC1 [FK866] | 2.43 |
| CS(=O)(=O)c1ccc(C(=O)Nc2ccc(Cl)c(-c3ccccn3)c2)c(Cl)c1 [vismodegib] | 3.41 |
| C=CCn1c(=O)c2cnc(Nc3ccc(N4CCN(C)CC4)cc3)nc2n1-c1cccc(C(C)(C)O)n1 [adavosertib] | 2.47 |

Same assay, conditions: 625 fM; days in culture: 209

| SMILES | CTG-3D luminescence at 96 h |
| --- | --- |
| COc1cc2c(Oc3ccc4[nH]c(C)cc4c3F)ncnc2cc1OCCCN1CCCC1 [cediranib] | 2.14 |
| CC(C)n1nc(-c2ccc3oc(N)nc3c2)c2c(N)ncnc21 [sapanisertib] | 2.18 |
| Cc1cc(Nc2ncnc3ccc(NC4=NC(C)(C)CO4)cc23)ccc1Oc1ccn2ncnc2c1 [tucatinib] | 2.39 |
| C[C@H](NC(=O)CCC(F)(F)F)C(=O)N[C@@H]1C(=O)N(CCO)c2ncccc2-c2ccccc21 [crenigacestat] | 2.29 |
| C[C@]12CC[C@@H]3c4ccc(O)cc4C[C@@H](CCCCCCCCC[S+]([O-])CCCC(F)(F)C(F)(F)F)[C@H]3[C@@H]1CC[C@@H]2O (stereo partly specified) [fulvestrant] | 2.47 |
| O=C(c1ccc(F)c(F)c1Nc1ccc(I)cc1F)N1CC(O)([C@@H]2CCCCN2)C1 [cobimetinib] | 2.4 |
| O=C(/C=C/c1cccnc1)NCCCCC1CCN(C(=O)c2ccccc2)CC1 [FK866] | 2.4 |
| CS(=O)(=O)c1ccc(C(=O)Nc2ccc(Cl)c(-c3ccccn3)c2)c(Cl)c1 [vismodegib] | 2.71 |
| C=CCn1c(=O)c2cnc(Nc3ccc(N4CCN(C)CC4)cc3)nc2n1-c1cccc(C(C)(C)O)n1 [adavosertib] | 2.35 |

Same assay, conditions: 625 fM; days in culture: 227

| SMILES | CTG-3D luminescence at 96 h |
| --- | --- |
| COc1cc2c(Oc3ccc4[nH]c(C)cc4c3F)ncnc2cc1OCCCN1CCCC1 [cediranib] | 5.65 |
| CC(C)n1nc(-c2ccc3oc(N)nc3c2)c2c(N)ncnc21 [sapanisertib] | 5.6 |
| Cc1cc(Nc2ncnc3ccc(NC4=NC(C)(C)CO4)cc23)ccc1Oc1ccn2ncnc2c1 [tucatinib] | 5.85 |
| C[C@H](NC(=O)CCC(F)(F)F)C(=O)N[C@@H]1C(=O)N(CCO)c2ncccc2-c2ccccc21 [crenigacestat] | 4.95 |
| C[C@]12CC[C@@H]3c4ccc(O)cc4C[C@@H](CCCCCCCCC[S+]([O-])CCCC(F)(F)C(F)(F)F)[C@H]3[C@@H]1CC[C@@H]2O (stereo partly specified) [fulvestrant] | 5.27 |
| O=C(c1ccc(F)c(F)c1Nc1ccc(I)cc1F)N1CC(O)([C@@H]2CCCCN2)C1 [cobimetinib] | 5.77 |
| O=C(/C=C/c1cccnc1)NCCCCC1CCN(C(=O)c2ccccc2)CC1 [FK866] | 5.65 |
| CS(=O)(=O)c1ccc(C(=O)Nc2ccc(Cl)c(-c3ccccn3)c2)c(Cl)c1 [vismodegib] | 5.19 |
| C=CCn1c(=O)c2cnc(Nc3ccc(N4CCN(C)CC4)cc3)nc2n1-c1cccc(C(C)(C)O)n1 [adavosertib] | 6.55 |
